Experimental data from patent publication US5837868A, “Process for preparation of chiral 3-amino-pyrrolidine and analogous bicyclic compounds” (Abbott Laboratories, priority 1997, dated 1998).

Key:
Staph. aureus ATCC 6538P = test: In vitro antibacterial activity, agar dilution MIC; type: cell-based; settings: Staph. aureus ATCC 6538P; BHI agar dilution, 20-24 hours
Description: (§1) Each plate was inoculated with 1:100 (or 1:10 for slow-growing strains, primarily Micrococcus and Streptococcus) dilutions of up to 32 different microorganisms, using a Steers replicator block calibrated to deliver approximately 10^4 colony forming units (CFUs). The inoculated plates were incubated at from about 35° C. to about 37° C. for approximately 20-24 hours. In addition, a control plate using BHI agar containing no test compound was prepared and incubated at the beginning and at the end of each test. The quinolone antibacterial ciprofloxacin was used as a control ("Cntl").
(§2) The MIC was defined as the lowest concentration of test compound yielding no growth (a slight haze or sparsely isolated colonies at the inoculum spot) as compared to the growth control containing no test compound.

Staph. aureus A5177 = test: In vitro antibacterial activity, agar dilution MIC; type: cell-based; settings: Staph. aureus A5177; BHI agar dilution, 20-24 hours
Description: as §1, §2

Staph. aureus 5278 = test: In vitro antibacterial activity, agar dilution MIC; type: cell-based; settings: Staph. aureus 5278; BHI agar dilution, 20-24 hours
Description: as §1, §2

Staph. aureus 642A = test: In vitro antibacterial activity, agar dilution MIC; type: cell-based; settings: Staph. aureus 642A; BHI agar dilution, 20-24 hours
Description: as §1, §2

Staph. aureus CMX 553 = test: In vitro antibacterial activity, agar dilution MIC; type: cell-based; settings: Staph. aureus CMX 553; BHI agar dilution, 20-24 hours
Description: as §1, §2

[1] = test system: Staph. aureus 1775 Cipro. R.; test: In vitro antibacterial activity, agar dilution MIC; type: cell-based; settings: Staph. aureus 1775 Cipro. R.; BHI agar dilution, 20-24 hours
Description: as §1, §2

Staph. epidermidis 3519 = test: In vitro antibacterial activity, agar dilution MIC; type: cell-based; settings: Staph. epidermidis 3519; BHI agar dilution, 20-24 hours
Description: as §1, §2

[2] = test system: Entero. faecium ATCC 8043; test: In vitro antibacterial activity, agar dilution MIC; type: cell-based; settings: Entero. faecium ATCC 8043; BHI agar dilution, 20-24 hours
Description: as §1, §2

Strep. bovis A5169 = test: In vitro antibacterial activity, agar dilution MIC; type: cell-based; settings: Strep. bovis A5169; BHI agar dilution, 20-24 hours
Description: as §1, §2

[3] = test system: Strep. agalactiae CMX 508; test: In vitro antibacterial activity, agar dilution MIC; type: cell-based; settings: Strep. agalactiae CMX 508; BHI agar dilution, 20-24 hours
Description: as §1, §2

Strep. pyogenes EES61 = test: In vitro antibacterial activity, agar dilution MIC; type: cell-based; settings: Strep. pyogenes EES61; BHI agar dilution, 20-24 hours
Description: as §1, §2

[4] = test system: Strep. pyogenes 930 CONST; test: In vitro antibacterial activity, agar dilution MIC; type: cell-based; settings: Strep. pyogenes 930 CONST; BHI agar dilution, 20-24 hours
Description: as §1, §2

[5] = test system: Strep. pyogenes 2548 INDUC; test: microbe, parasite or virus in culture; type: cell-based; settings: Strep. pyogenes 2548 INDUC; BHI agar dilution, 20-24 hours
Description: as §1, §2

M. luteus ATCC 9341 = test: In vitro antibacterial activity, agar dilution MIC; type: cell-based; settings: M. luteus ATCC 9341; BHI agar dilution, 20-24 hours
Description: as §1, §2

M. luteus ATCC 4698 = test: In vitro antibacterial activity, agar dilution MIC; type: cell-based; settings: M. luteus ATCC 4698; BHI agar dilution, 20-24 hours
Description: as §1, §2

Escherichia coli Juhl = test: In vitro antibacterial activity, agar dilution MIC; type: cell-based; settings: Escherichia coli Juhl; BHI agar dilution, 20-24 hours
Description: as §1, §2

E. coli SS = test: In vitro antibacterial activity, agar dilution MIC; type: cell-based; settings: E. coli SS; BHI agar dilution, 20-24 hours
Description: as §1, §2

E. coli DC-2 = test: In vitro antibacterial activity, agar dilution MIC; type: cell-based; settings: E. coli DC-2; BHI agar dilution, 20-24 hours
Description: as §1, §2

E. coli H560 = test: In vitro antibacterial activity, agar dilution MIC; type: cell-based; settings: E. coli H560; BHI agar dilution, 20-24 hours
Description: as §1, §2

E. coli KNK 437 = test: In vitro antibacterial activity, agar dilution MIC; type: cell-based; settings: E. coli KNK 437; BHI agar dilution, 20-24 hours
Description: as §1, §2

[6] = test system: Enter. aerogenes ATCC 13048; test: In vitro antibacterial activity, agar dilution MIC; type: cell-based; settings: Enter. aerogenes ATCC 13048; BHI agar dilution, 20-24 hours
Description: as §1, §2

[7] = test system: Klebs. pneumoniae ATCC 8045; test: In vitro antibacterial activity, agar dilution MIC; type: cell-based; settings: Klebs. pneumoniae ATCC 8045; BHI agar dilution, 20-24 hours
Description: as §1, §2

[8] = test system: Providencia stuartii CMX 640; test: In vitro antibacterial activity, agar dilution MIC; type: cell-based; settings: Providencia stuartii CMX 640; BHI agar dilution, 20-24 hours
Description: as §1, §2

P. aeruginosa BMH 10 = test: In vitro antibacterial activity, agar dilution MIC; type: cell-based; settings: P. aeruginosa BMH 10; BHI agar dilution, 20-24 hours
Description: as §1, §2

P. aeruginosa A5007 = test: In vitro antibacterial activity, agar dilution MIC; type: cell-based; settings: P. aeruginosa A5007; BHI agar dilution, 20-24 hours
Description: as §1, §2

P. aeruginosa K799/WT = test: In vitro antibacterial activity, agar dilution MIC; type: cell-based; settings: P. aeruginosa K799/WT; BHI agar dilution, 20-24 hours
Description: as §1, §2

P. aeruginosa K799/61 = test: In vitro antibacterial activity, agar dilution MIC; type: cell-based; settings: P. aeruginosa K799/61; BHI agar dilution, 20-24 hours
Description: as §1, §2

Pseudomonas cepacia 296I = test: In vitro antibacterial activity, agar dilution MIC; type: cell-based; settings: Pseudomonas cepacia 296I; BHI agar dilution, 20-24 hours
Description: as §1, §2

[9] = test system: Acinetob. calcoaceticus CMX 669; test: In vitro antibacterial activity, agar dilution MIC; type: cell-based; settings: Acinetob. calcoaceticus CMX 669; BHI agar dilution, 20-24 hours
Description: as §1, §2

P. aeruginosa 2862 = test: In vitro antibacterial activity, agar dilution MIC; type: cell-based; settings: P. aeruginosa 2862; BHI agar dilution, 20-24 hours
Description: as §1, §2

Myco. smegmatis ATCC 114 = test: In vitro antibacterial activity, agar dilution MIC; type: cell-based; settings: Myco. smegmatis ATCC 114; BHI agar dilution, 20-24 hours
Description: as §1, §2

[10] = test system: Nocardia asteroides ATCC 9970; test: In vitro antibacterial activity, agar dilution MIC; type: cell-based; settings: Nocardia asteroides ATCC 9970; BHI agar dilution, 20-24 hours
Description: as §1, §2

P. aeruginosa 5263 = settings: BHI agar dilution, 20-24 hours
Description: as §1, §2

Candida albicans CCH 442 = test: In vitro antibacterial activity, agar dilution MIC; settings: Candida albicans CCH 442; BHI agar dilution, 20-24 hours
Description: as §1, §2

Molecule `CC[C@@H]1CN(c2c(F)cn3c(=O)c(C(=O)O)cc(C4CC4)c3c2C)C[C@H]1N.Cl` (single isomer, unassigned; diastereomer a) [Ex. 2, 8-(trans-3-amino-4-ethylpyrrolidin-1-yl)-1-cyclopropyl-7-fluoro-4H-9-methyl-4-oxo-quinolizine-3-carboxylic acid hydrochloride diastereomer A] has an MIC (Staph. aureus ATCC 6538P) of 0.02 µg/mL, an MIC (Staph. aureus A5177) of 0.02 µg/mL and an MIC (Staph. aureus 5278) of 0.05 µg/mL. The MIC (Staph. aureus 642A) was 0.02 µg/mL, the MIC (Staph. aureus CMX 553) was 0.02 µg/mL and the MIC [1] was 0.78 µg/mL. For the same molecule, the MIC (Staph. epidermidis 3519) was 0.05 µg/mL, the MIC [2] was 0.05 µg/mL and the MIC (Strep. bovis A5169) was 0.1 µg/mL. The MIC [3] was 0.02 µg/mL, the MIC (Strep. pyogenes EES61) was 0.02 µg/mL and the MIC [4] was 0.05 µg/mL. It also gave an MIC [5] of 0.05 µg/mL, an MIC (M. luteus ATCC 9341) of 0.05 µg/mL and an MIC (M. luteus ATCC 4698) of 0.05 µg/mL. It also gave an MIC (Escherichia coli Juhl) of 0.01 µg/mL, an MIC (E. coli SS) of 0.001 µg/mL and an MIC (E. coli DC-2) of 0.1 µg/mL. It also gave an MIC (E. coli H560) of 0.01 µg/mL, an MIC (E. coli KNK 437) of 0.1 µg/mL and an MIC [6] of 0.1 µg/mL. It also gave an MIC [7] of 0.05 µg/mL, an MIC [8] of 0.39 µg/mL and an MIC (P. aeruginosa BMH 10) of 0.2 µg/mL. It also gave an MIC (P. aeruginosa A5007) of 0.39 µg/mL, an MIC (P. aeruginosa K799/WT) of 0.78 µg/mL and an MIC (P. aeruginosa K799/61) of 0.1 µg/mL. The MIC (Pseudomonas cepacia 296I) was 1.56 µg/mL, the MIC [9] was 0.05 µg/mL and the MIC (P. aeruginosa 2862) was 6.2 µg/mL. For the same molecule, the MIC (Myco. smegmatis ATCC 114) was 0.02 µg/mL, the MIC [10] was 0.78 µg/mL and the MIC (P. aeruginosa 5263) was 3.1 µg/mL. It also gave an MIC (Candida albicans CCH 442) of over 100 µg/mL.
